Experimental data as given in PubChem BioAssay AID504497 (Sanford-Burnham Center for Chemical Genomics, 2011).
pIC50: −log10 of the molar value.

Target: Sentrin-specific protease 7 (Homo sapiens) (UniProt Q9BQF6)
Test: inhibition of human SENP7 cleavage activity – biochemical, luminescence, SAR follow-up (AID 504497)
Conditions: recombinant SENP7, Z-RLRGG-aminoluciferin luminescence

Sequence of Sentrin-specific protease 7 (Homo sapiens) (Q9BQF6 706-1050 limits assumed): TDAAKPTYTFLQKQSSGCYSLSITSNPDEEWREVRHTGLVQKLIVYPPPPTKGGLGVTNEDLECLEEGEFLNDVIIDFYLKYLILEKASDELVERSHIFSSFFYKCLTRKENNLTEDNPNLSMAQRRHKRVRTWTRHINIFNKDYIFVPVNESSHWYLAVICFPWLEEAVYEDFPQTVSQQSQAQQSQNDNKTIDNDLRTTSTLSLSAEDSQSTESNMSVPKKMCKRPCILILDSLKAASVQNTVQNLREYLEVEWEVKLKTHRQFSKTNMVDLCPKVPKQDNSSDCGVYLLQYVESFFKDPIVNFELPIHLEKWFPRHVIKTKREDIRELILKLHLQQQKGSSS

pIC50: 5.25
SMILES: N#Cc1c(NC(=O)CSc2ncn[nH]2)sc2c1CCCCC2
